Peptide text beside a SMILES is read from it.
Tests used:
PjMetAP-II [1] = target: T1, PjMetAP-II (Pyrococcus furiosus, UniProt P56218); assay: Reaction of type-II MetAP with Inhibitor 1 and Inhibitor 2, catalytic activity; assay type: biochemical; conditions: reaction for up to 12 hours
Experimental: (§1) Since only C59 appears to be accessible for covalent modification, two potential inhibitors (Inhibitor 1 and Inhibitor 2, as depicted in FIG. 10) were prepared based on molecular modeling, one of which contains a good leaving group (I^−) and should be susceptible to nucleophilic attack while the second will not undergo nucleophilic addition.

EcMetAP-I [2] = target: T2, EcMetAP-I (Escherichia coli, UniProt P0AE18); assay: MALDI-TOF analysis of EcMetAP-I with and without Inhibitor 1; assay type: binding, E. coli
T2 sequence (P0AE18 1-264): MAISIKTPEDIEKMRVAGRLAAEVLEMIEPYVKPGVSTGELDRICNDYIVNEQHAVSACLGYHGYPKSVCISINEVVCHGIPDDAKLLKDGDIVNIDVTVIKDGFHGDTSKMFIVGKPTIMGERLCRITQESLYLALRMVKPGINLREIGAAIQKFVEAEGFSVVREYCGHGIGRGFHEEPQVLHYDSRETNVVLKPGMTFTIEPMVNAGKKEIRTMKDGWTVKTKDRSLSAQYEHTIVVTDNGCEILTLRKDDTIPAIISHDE
Experimental: Matrix-Assisted Laser Desorption Ionization-Time of Flight (MALDI-TOF) spectrometric analysis was performed on EcMetAP-I in both the presence and absence of Inhibitor 1.

wild-type EcMetAP-I = target: T3, wild-type EcMetAP-I (Escherichia coli, UniProt P0AE18); assay: Reaction of wild-type EcMetAP-I with Inhibitor 1 and Inhibitor 2, catalytic activity; assay type: biochemical, E. coli; conditions: reaction for up to 12 hours
T3 sequence (P0AE18 1-264): T2 sequence (P0AE18 1-264)
Experimental: as §1

C70A EcMetAP [3] = target: T4, C70A EcMetAP (Escherichia coli, UniProt P0AE18, C70A); assay: Kinetic constants towards MGMM, C70A mutant; assay type: biochemical, E. coli; conditions: 30° C., pH 7.5
T4 construct: made in house
Experimental: (§2) Since at least one surface accessible cysteine residue, in addition to Cys59 and Cys70, exists in EcMetAP-I, reaction of DTNB with other residues cannot be ruled out. In order to circumvent this problem, both the C59A and C70A EcMetAP-I mutant enzymes were prepared and purified using the QuikChange Site-directed Mutagenesis Kit (Stratagene) and each mutation was verified by nucleotide sequencing. Both mutant enzymes bind one equivalent of Co(II) or Fe(II) tightly, based on ICP-AES analysis, which is identical to wild-type EcMetAP, and their kinetic parameters are listed below. […] Moreover, the Km values for both Co(II)— and Fe(II)-loaded EcMetAP C59A and C70A double and quadruple, respectively.

C59A EcMetAP [4] = target: T5, C59A EcMetAP (Escherichia coli, UniProt P0AE18, C59A); assay: Kinetic constants towards MGMM, C59A mutant; assay type: biochemical, E. coli; conditions: 30° C., pH 7.5
T5 construct: made in house
Experimental: as §2

C59A EcMetAP [5] = target: T5, C59A EcMetAP; assay: DTNB inactivation of C59A mutant enzyme; assay type: biochemical, E. coli; conditions: 10 μM DTNB
Experimental: as §2

C70A EcMetAP [6] = target: T4, C70A EcMetAP; assay: DTNB inactivation of C70A mutant enzyme; assay type: biochemical, E. coli; conditions: compared with wild-type
Experimental: as §2

PjMetAP-II [7] = target: T1, PjMetAP-II; assay: DTNB inactivation of type-II MetAP, identical experiments; assay type: biochemical; conditions: even after several hours
HsMetAP type-II enzyme = HsMetAP type-II enzyme (Homo sapiens, UniProt P50579); assay: DTNB effect on catalytic activity of HsMetAP type-II; assay type: biochemical; conditions: 200 μM DTNB
EcMetAP-I [8] = target: T2, EcMetAP-I; assay: DTNB inactivation of EcMetAP-I, hydrolysis of MP-p-NA; assay type: biochemical, E. coli; conditions: 200 μM DTNB, Co(II)-loaded EcMetAP-I, strict anaerobic conditions, pH 7.5, MP-p-NA hydrolysis
Experimental: In order to determine if Cys59 and Cys70 are involved in substrate recognition and binding, it was examined if the cysteine-specific chemical modification reagent, 5,5′-dithio-bis(2-nitrobenzoic acid) (DTNB) inhibits the hydrolysis of methionylprolyl-p-nitroanilide (MP-p-NA) by EcMetAP. A 200 μM solution of DTNB was prepared in 50 mM HEPES buffer, pH 7.5, […] and added to a […] sample of Co(II)-loaded EcMetAP-I under strict anaerobic conditions.

[9] = substrate: CSCC[C@H](NC(=O)[C@H](CCSC)NC(=O)CNC(=O)[C@@H](N)CCSC)C(=O)O; assay: Kinetic constants towards MGMM, wild-type enzyme; assay type: biochemical, E. coli; conditions: 30° C., pH 7.5
Experimental: as §2

## O=P(O)(O)CCCCI [Inhibitor 1, 4-iodobutylphosphonic acid]
PjMetAP-II [1]
  inhibition of type-II MetAP: not significantly inhibited
EcMetAP-I [2]; MALDI-TOF, enzyme alone 29,500±10
  shift in mass peak of EcMetAP-I upon reaction (addition): 140 mass units
EcMetAP-I [2]; via C59, concluded from MALDI-TOF
  mode of binding to EcMetAP-I: covalently bound
wild-type EcMetAP-I
  effect on catalytic activity of EcMetAP-I: complete and irreversible loss in catalytic activity

## CSCC[C@H](NC(=O)[C@H](CCSC)NC(=O)CNC(=O)[C@@H](N)CCSC)C(=O)O [MGMM] (H-MGMM-OH)
C70A EcMetAP [3]; Co(II)-loaded
  Km: 10 ± 0.2 mM
C70A EcMetAP [3]; Fe(II)-loaded
  Km: 11 ± 0.2 mM
C59A EcMetAP [4]; Co(II)-loaded
  Km: 6.4 ± 0.2 mM
C59A EcMetAP [4]; Fe(II)-loaded
  Km: 8 ± 0.2 mM

## O=C(O)CCCCCP(=O)(O)O [Inhibitor 2, 6-phosphonhexanoic acid]
PjMetAP-II [1]
  inhibition of type-II MetAP: not significantly inhibited
wild-type EcMetAP-I
  effect on catalytic activity of EcMetAP-I: did not significantly alter

## O=C(O)c1cc(SSc2ccc([N+](=O)[O-])c(C(=O)O)c2)ccc1[N+](=O)[O-] [DTNB, 5,5′-dithio-bis(2-nitrobenzoic acid)]
C59A EcMetAP [5]; compared with wild-type
  inactivation rate: slower rate
C59A EcMetAP [5]; strict anaerobic conditions
  inactivation of the catalytic activity: complete inactivation
C70A EcMetAP [6]
  observed inactivation rate: identical to wild-type enzyme
PjMetAP-II [7]
  inactivation due to DTNB: no inactivation
HsMetAP type-II enzyme
  loss in catalytic activity: no loss in catalytic activity
EcMetAP-I [8]
  time until EcMetAP was completely inactive after addition of DTNB: 50 min

B1: wild-type EcMetAP (Escherichia coli K-12) (protein)
chain: T2 sequence (P0AE18 1-264)
[9]; other: Co(II)-loaded
  Km: 3.2 ± 0.1 mM
  Vmax: 39 µmol/min/mg
  kcat: 19.5 s⁻¹
  kcat/Km: 6100 M⁻¹ s⁻¹
[9]; other: Fe(II)-loaded
  Km: 2.0 ± 0.3 mM
  Vmax: 55 µmol/min/mg
  kcat: 28 s⁻¹
  kcat/Km: 14000 M⁻¹ s⁻¹
